Measurements from patent publication US20240067632A1, “WEE1 Degrading Compounds and Uses Thereof” (Bristol-Myers Squibb Company, priority 2022, published 2024).
Where two headings read alike, the source gives them in different places.

What was measured:
[1] = biological target: T1, WEE1 (Homo sapiens, UniProt P30291+Q96SW2); assay: WEE1-ePL degradation assay (LentiX-WEE1-ePL-GSPT1-ND cells, InCELL Hunter luminescence, 4 h); format: cell-based; settings: 293T-LentiX WEE1-ePL cells; for DC50: read-out: 293T-LentiX WEE1-ePL Degradation 4 hr (EC50)
T1 construct: C-terminal ePL-tagged (DiscoverX, Fremont, CA) full-length WEE1 expression construct; expressed in transfected cells; host or cells: LentiX-HEK293T (Invitrogen), lentiviral transduction; co-expressing GSPT1-GN (G576N, lacking the first 158 amino acids)
Method in brief: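 Luminescent readout (InCELL Hunter, 30 min RT) of WEE1-ePL levels in transduced HEK293T cells after 4 h compound exposure at 37 °C. Dosing: 10 points, 3-fold steps, top 1 uM or 10 uM. EC50 from four-parameter logistic fit; Ymax set by DMSO.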

[2] = test system: MKN45 cells; assay: MKN45 cell proliferation assay (Cell-Titer-Glo, 120 h); format: cell-based; settings: for EC50: Homo sapiens, MKN-45, 120 h, Cell-Titer-Glo, read-out: MKN45 Cell Prolif. 120 hr (EC50); for MKN45 Cell Prolif. 120 hr (Ymin-Obs): minimal percent of DMSO control observed in the concentrations tested
Method in brief: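 Growth inhibition was read as blank-corrected Cell-Titer-Glo luminescence expressed as percent DMSO control after 120 h at 37 C, 400 cells/well. Compounds tested in triplicate as 10-point half-log series from 1 or 10 uM, 0.1% DMSO; four-parameter fit gave EC50, and lowest observed percent control was reported as Ymin-obs.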

[3] = lower limit of the fit (0 = luciferase inhibitor, Ymax = DMSO control)
[4] = lower limit of the fit (Ymin=0 luciferase inhibitor, Ymax DMSO control)

SMILES | 293T-LentiX WEE1-ePL Degradation 4 hr (Ymin) [1, 3] | DC50 [1] [nM] | EC50 ([2]; growth inhibition) [nM] | MKN45 Cell Prolif. 120 hr (Ymin-Obs) [2] | 293T-LentiX WEE1-ePL Degradation 4 hr (Ymin) [1, 4] | EC50 [2] [nM]
O=C1CCC(N2Cc3cc(O[C@H]4CCN(Cc5cc6cc(F)ccc6cn5)C4)c(F)cc3C2=O)C(=O)N1 (stereo partly drawn) [3-(6-fluoro-5-{[(3S)-1-[(6-fluoroisoquinolin-3-yl)methyl]pyrrolidin-3-yl]oxy}-1-oxo-2,3-dihydro-1H-isoindol-2-yl)piperidine-2,6-dione] | 36 | 14.3 | 104 | 11.55 |  | 
O=C1CCC(N2Cc3cc(O[C@H]4CCN(Cc5cc6ccccc6cn5)C4)c(F)cc3C2=O)C(=O)N1 (stereo partly drawn) [3-(6-fluoro-5-{[(3S)-1-[(isoquinolin-3-yl)methyl]pyrrolidin-3-yl]oxy}-1-oxo-2,3-dihydro-1H-isoindol-2-yl)piperidine-2,6-dione] | 34 | 10.6 | 53.7 | 7.57 |  | 
O=C1CCC(N2Cc3cc(O[C@H]4CCN(Cc5ccc6nc(C7CCOCC7)ccc6c5)C4)c(F)cc3C2=O)C(=O)N1 (stereo partly drawn) [3-(6-fluoro-5-{[(3S)-1-{[2-(oxan-4-yl)quinolin-6-yl]methyl}pyrrolidin-3-yl]oxy}-1-oxo-2,3-dihydro-1H-isoindol-2-yl)piperidine-2,6-dione] |  | 3 |  | 15.44 | 30.27 | 7.69
Cc1nc2ccccc2cc1CN1CC[C@H](Oc2ccc3c(c2)C(=O)N(C2CCC(=O)NC2=O)C3)C1 (stereo partly drawn) [3-(6-{[(3S)-1-[(2-methylquinolin-3-yl)methyl]pyrrolidin-3-yl]oxy}-1-oxo-2,3-dihydro-1H-isoindol-2-yl)piperidine-2,6-dione] | 87.055 |  |  | 79.9 |  | 
O=C1CCC(N2Cc3ccc(O[C@H]4CCN(Cc5cc6ccccc6cn5)C4)cc3C2=O)C(=O)N1 (stereo partly drawn) [3-(6-{[(3S)-1-[(isoquinolin-3-yl)methyl]pyrrolidin-3-yl]oxy}-1-oxo-2,3-dihydro-1H-isoindol-2-yl)piperidine-2,6-dione] | 93.8 |  | 0.399 | 82.45 |  | 
Cc1ccc2cc(CN3CC[C@H](Oc4ccc5c(c4)CN(C4(C)CCC(=O)NC4=O)C5=O)C3)ccc2n1 (stereo partly drawn) [3-methyl-3-(5-{[(3S)-1-[(2-methylquinolin-6-yl)methyl]pyrrolidin-3-yl]oxy}-1-oxo-2,3-dihydro-1H-isoindol-2-yl)piperidine-2,6-dione] | 69.05 | 5070 | > 10000 | 83.56 |  | 
CNC(=O)c1ccc2cc(CN3CC[C@H](Oc4ccc5c(c4)CN(C4CCC(=O)NC4=O)C5=O)C3)ncc2c1 (stereo partly drawn) [3-{[(3S)-3-{[2-(2,6-dioxopiperidin-3-yl)-1-oxo-2,3-dihydro-1H-isoindol-5-yl]oxy}pyrrolidin-1-yl]methyl}-N-methylisoquinoline-7-carboxamide] | 28 | 29.8 | 66.8 | 7.51 |  | 
N#Cc1ccc2cc(CN3CC[C@H](Oc4ccc5c(c4)CN(C4CCC(=O)NC4=O)C5=O)C3)ncc2c1 (stereo partly drawn) [3-{[(3S)-3-{[2-(2,6-dioxopiperidin-3-yl)-1-oxo-2,3-dihydro-1H-isoindol-5-yl]oxy}pyrrolidin-1-yl]methyl}isoquinoline-7-carbonitrile] | 29 | 1.87 | 10 | 8.661 |  | 
N#Cc1nc2ccccc2cc1CN1CC[C@H](Oc2ccc3c(c2)CN(C2CCC(=O)NC2=O)C3=O)C1 (stereo partly drawn) [3-{[(3S)-3-{[2-(2,6-dioxopiperidin-3-yl)-1-oxo-2,3-dihydro-1H-isoindol-5-yl]oxy}pyrrolidin-1-yl]methyl}quinoline-2-carbonitrile] | 29 | 1.2 | 5.83 | 6.985 |  | 
O=C1CCC(N2Cc3cc(O[C@H]4CCN(Cc5ccc6nc(N7CCS(=O)(=O)CC7)ncc6c5)C4)ccc3C2=O)C(=O)N1 (stereo partly drawn) [4-(6-{[(3S)-3-{[2-(2,6-dioxopiperidin-3-yl)-1-oxo-2,3-dihydro-1H-isoindol-5-yl]oxy}pyrrolidin-1-yl]methyl}quinazolin-2-yl)-1λ^6-thiomorpholine-1,1-dione] | 42 | 23.6 | 51 | 17.09 |  | 
O=C1CCC(N2Cc3cc(O[C@H]4CCN(Cc5ccc6nc(N7CCS(=O)(=O)CC7)ccc6c5)C4)ccc3C2=O)C(=O)N1 (stereo partly drawn) [4-(6-{[(3S)-3-{[2-(2,6-dioxopiperidin-3-yl)-1-oxo-2,3-dihydro-1H-isoindol-5-yl]oxy}pyrrolidin-1-yl]methyl}quinolin-2-yl)-1λ^6-thiomorpholine-1,1-dione] | 40 | 19.1 | 29.4 | 10.02 |  | 
N#Cc1ccc2cc(CN3C[C@@H](F)[C@H](Oc4ccc5c(c4)CN(C4CCC(=O)NC4=O)C5=O)C3)ccc2n1 (stereo partly drawn) [6-{[(3R,4R)-3-{[2-(2,6-dioxopiperidin-3-yl)-1-oxo-2,3-dihydro-1H-isoindol-5-yl]oxy}-4-fluoropyrrolidin-1-yl]methyl}quinoline-2-carbonitrile] | 32.7 | 22.3 | 91.6 | 37.36 |  | 
N#Cc1ccc2cc(CN3C[C@H](F)[C@H](Oc4ccc5c(c4)CN(C4CCC(=O)NC4=O)C5=O)C3)ccc2n1 (stereo partly drawn) [6-{[(3R,4S)-3-{[2-(2,6-dioxopiperidin-3-yl)-1-oxo-2,3-dihydro-1H-isoindol-5-yl]oxy}-4-fluoropyrrolidin-1-yl]methyl}quinoline-2-carbonitrile] | 33.71 | 13.1 | 22.7 | 24.13 |  | 
N#Cc1ccc2cc(CN3CC[C@H](Oc4ccc5c(c4)CN([C@H]4CCC(=O)NC4=O)C5=O)C3)cc(F)c2n1 [6-{[(3S)-3-({2-[(3S)-2,6-dioxopiperidin-3-yl]-1-oxo-2,3-dihydro-1H-isoindol-5-yl}oxy)pyrrolidin-1-yl]methyl}-8-fluoroquinoline-2-carbonitrile] | 27.19 | 1.71 | 2.72 | 8.579 |  | 
N#Cc1ccc2cc(CN3CC[C@H](Oc4ccc5c(c4)CN([C@H]4CCC(=O)NC4=O)C5=O)C3)ccc2n1 [6-{[(3S)-3-({2-[(3S)-2,6-dioxopiperidin-3-yl]-1-oxo-2,3-dihydro-1H-isoindol-5-yl}oxy)pyrrolidin-1-yl]methyl}quinoline-2-carbonitrile] |  | 2.46 |  | 14.78 | 28.06 | 6.01
C[C@]1(Oc2ccc3c(c2)CN(C2CCC(=O)NC2=O)C3=O)CCN(Cc2ccc3nc(C#N)ccc3c2)C1 (stereo partly drawn) [6-{[(3S)-3-{[2-(2,6-dioxopiperidin-3-yl)-1-oxo-2,3-dihydro-1H-isoindol-5-yl]oxy}-3-methylpyrrolidin-1-yl]methyl}quinoline-2-carbonitrile] | 94 |  | > 10000 | 80.88 |  | 
Cc1cc(C#N)c2cc(CN3CC[C@H](Oc4ccc5c(c4)CN(C4CCC(=O)NC4=O)C5=O)C3)ccc2n1 (stereo partly drawn) [6-{[(3S)-3-{[2-(2,6-dioxopiperidin-3-yl)-1-oxo-2,3-dihydro-1H-isoindol-5-yl]oxy}pyrrolidin-1-yl]methyl}-2-methylquinoline-4-carbonitrile] | 66.8 | 20.7 | > 10000 | 86.89 |  | 
N#Cc1nc2ccc(CN3CC[C@H](Oc4ccc5c(c4)CN(C4CCC(=O)NC4=O)C5=O)C3)cc2cc1F (stereo partly drawn) [6-{[(3S)-3-{[2-(2,6-dioxopiperidin-3-yl)-1-oxo-2,3-dihydro-1H-isoindol-5-yl]oxy}pyrrolidin-1-yl]methyl}-3-fluoroquinoline-2-carbonitrile] | 35 | 7.79 | 32.8 | 12.265 |  | 
